Assay results from patent publication US8426408B2, “Pyrimidine inhibitors of kinases” (AbbVie Inc., priority 2009, dated 2013).

How the values were obtained:
Type in all cases: biochemical
Aurora B = target: T1, Aurora B (Homo sapiens, UniProt Q96GD4); test: Aurora B enzyme inhibition (time-resolved fluorescence, histone H3 peptide); settings: 1 mM ATP
T1 construct: Active Aurora B enzyme (recombinant residues 1-344)
Description: To determine Aurora B activity of representative compounds of the invention, Active Aurora B enzyme (recombinant residues 1-344) and INCENP (recombinant GST fusion protein (Upstate)) were incubated in wells of a 384 well plate with biotinylated histone H3 peptide residues 1-21 (Upstate), 1 mM ATP, and various concentrations of inhibitors in a HEPES buffer, pH 7.4 containing MgCl2, sodium othrovanadate, and Triton X-100. After 1 hour, the reaction was stopped with EDTA and anti-phospho-histone H3 Europium Cryptate (Cis-Bio) and SA-APC (Phycolink, Prozyme) were added to detect the phosphopeptide. The amount of phosphorylation was determined by the time-resolved fluorescence ratio of signals at 665 nm and 615 nm. The IC50's were calculated by an exponential fit of the inhibition values with the inhibitor concentrations using Assay Explorer software.

KDR = KDR (Homo sapiens, UniProt P35968); test: KDR HTRF in vitro kinase assay; design: purified enzyme (His6-KDR 789-1354, MW 63 kD); His6 (N); settings: 1 mM ATP; read-out: KDR enzyme inhibition data (Ki)
Chain of KDR (P35968 789-1354): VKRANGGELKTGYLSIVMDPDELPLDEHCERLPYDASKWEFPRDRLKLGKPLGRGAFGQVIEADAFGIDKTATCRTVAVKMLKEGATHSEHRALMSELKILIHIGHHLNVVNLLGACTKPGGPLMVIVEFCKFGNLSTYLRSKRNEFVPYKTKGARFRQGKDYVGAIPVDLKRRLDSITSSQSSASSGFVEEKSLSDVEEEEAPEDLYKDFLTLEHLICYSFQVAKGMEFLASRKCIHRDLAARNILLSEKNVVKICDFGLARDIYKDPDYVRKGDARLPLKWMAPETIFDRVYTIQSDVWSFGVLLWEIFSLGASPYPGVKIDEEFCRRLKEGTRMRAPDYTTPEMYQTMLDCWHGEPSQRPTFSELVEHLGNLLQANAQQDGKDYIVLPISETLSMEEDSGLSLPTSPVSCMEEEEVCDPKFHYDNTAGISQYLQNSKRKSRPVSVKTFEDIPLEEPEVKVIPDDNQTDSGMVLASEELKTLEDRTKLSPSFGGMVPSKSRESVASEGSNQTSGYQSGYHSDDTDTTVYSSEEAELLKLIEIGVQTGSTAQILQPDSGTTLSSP
Description: To determine the activity of the various kinases, a homogenous time-resolved fluorescence (HTRF) in vitro kinase assay was used. (Mathis, G., HTRF® Technology. J Biomol Screen, 1999. 4(6): p. 309-314; Alfred J. Kolb, Paul V. Kaplita, David J. Hayes, Young-Whan Park, Christine Pernell, John S. Major and Gerard Mathis, Drug Discovery Today, 1998, 3, 333-342.)
For example for KDR, 7 ng/well of purified enzyme (His6-KDR 789-1354, MW 63 kD) was mixed with 0.5 μM N-biotinylated substrate (Biotin-Ahx-AEEEYFFLA-amide (SEQ. ID. 1)), various concentrations of inhibitor in reaction buffer (50 mM HEPES, pH 7.1, 10 mM MgCl2, 2 mM MnCl2, 0.1% BSA and 1 mM DTT, 40 L final volume), ATP (1 mM final conc.) in a black 384-well plate. After 60 minutes incubation at room temperature, the reaction was quenched by addition of a buffered EDTA solution (final approximate concentrations: 30 mM EDTA, 0.1% BSA, 0.1% Triton X-100 and 0.24M KF) and a solution of revelation agents (to give 0.084 ng/well streptavidin-XL-665 (Cis-Bio) and 6.5 ng/well antiphsophotyrosine mAb PT66-K Europium kryptate) was added to the reaction mixture. The quenched reaction was allowed to stand at room temperature for 3 hours and was then read in a time-resolved fluorescence detector (InVision, Perkin-Elmer) at 620 nm and 665 nm sequentially with excitation. The ratio between the signal of 620 nm and 665 nm was used in the calculation of the IC50.

Aurora A = target: T2, Aurora A (Homo sapiens, UniProt O14965); test: Aurora A enzyme inhibition (time-resolved fluorescence, STK substrate-2); settings: 1 mM ATP
T2 sequence (O14965 1-403): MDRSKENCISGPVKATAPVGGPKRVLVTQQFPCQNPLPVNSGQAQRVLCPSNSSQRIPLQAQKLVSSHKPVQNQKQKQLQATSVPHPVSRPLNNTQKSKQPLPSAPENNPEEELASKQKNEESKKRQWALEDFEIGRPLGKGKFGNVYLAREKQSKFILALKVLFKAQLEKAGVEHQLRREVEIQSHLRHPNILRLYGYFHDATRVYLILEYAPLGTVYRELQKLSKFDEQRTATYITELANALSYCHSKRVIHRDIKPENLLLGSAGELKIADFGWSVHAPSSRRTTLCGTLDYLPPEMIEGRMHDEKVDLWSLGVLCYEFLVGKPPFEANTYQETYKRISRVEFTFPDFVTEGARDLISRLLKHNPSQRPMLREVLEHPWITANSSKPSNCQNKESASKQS
Description: To determine Aurora A and C activity of representative compounds of the invention, Active Aurora A or C enzyme was incubated in wells of a 384 well plate with biotinylated STK substrate-2 (Upstate), 1 mM ATP, and various concentrations of inhibitors in a Hepes buffer, pH 7.4 containing MgCl2, sodium othrovanadate, and Triton X-100. After 1 hour, the reaction was stopped with EDTA and anti-phospho-STK antibody Europium Cryptate (Upstate) and SA-XL665 (Upstate) were added to detect the phosphopeptide. The amount of phosphorylation was determined by the time-resolved fluorescence ratio of signals at 665 nm and 615 nm. The IC50s were calculated by an exponential fit of the inhibition values with the inhibitor concentrations using Assay Explorer software.

T1 sequence (Q96GD4 whole entry, the tested form may be a part): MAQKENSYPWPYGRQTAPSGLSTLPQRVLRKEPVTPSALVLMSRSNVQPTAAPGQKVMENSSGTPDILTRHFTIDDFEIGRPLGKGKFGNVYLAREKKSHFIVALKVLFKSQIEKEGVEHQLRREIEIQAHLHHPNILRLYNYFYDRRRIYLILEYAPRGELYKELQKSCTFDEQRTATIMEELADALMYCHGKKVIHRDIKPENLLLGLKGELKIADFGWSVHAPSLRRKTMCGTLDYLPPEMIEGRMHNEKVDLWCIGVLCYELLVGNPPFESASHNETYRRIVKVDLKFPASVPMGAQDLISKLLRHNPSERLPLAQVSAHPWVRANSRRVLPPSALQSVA
T1 sequence (Q9NQS7 826-918 partner limits assumed): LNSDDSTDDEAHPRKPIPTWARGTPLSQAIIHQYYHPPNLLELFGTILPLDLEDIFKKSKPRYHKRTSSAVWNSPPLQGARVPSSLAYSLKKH

Compound | Ki (Aurora B) | Ki (KDR) | Ki (Aurora A)
Cn1cc(Nc2ncc(F)c(N[C@@H]3CCC[C@@H]3C(N)=O)n2)cn1.Cn1cc(Nc2ncc(F)c(N[C@H]3CCC[C@H]3C(N)=O)n2)cn1 (mixture of isomers) [Example 4, (1S,2R)-2-({5-fluoro-2-[(1-methyl-1H-pyrazol-4-yl)amino]pyrimidin-4-yl}amino)cyclopentanecarboxamide and (1R,2S)-2-({5-fluoro-2-[(1-methyl-1H-pyrazol-4-yl)amino]pyrimidin-4-yl}amino)cyclopentanecarboxamide] | 100 to 1000 nM | > 5000 nM | > 5000 nM
CCOC(=O)[C@@H]1[C@H](Nc2nc(Nc3cnn(C)c3)ncc2F)[C@H]2C=C[C@@H]1C2.CCOC(=O)[C@H]1[C@@H](Nc2nc(Nc3cnn(C)c3)ncc2F)[C@@H]2C=C[C@H]1C2 (mixture of isomers) [Example 7, ethyl(1S,2S,3R,4R)-3-({5-fluoro-2-[(1-methyl-1H-pyrazol-4-yl)amino]pyrimidin-4-yl}amino)bicyclo[2.2.1]hept-5-ene-2-carboxylate and ethyl(1R,2R,3S,4S)-3-({5-fluoro-2-[(1-methyl-1H-pyrazol-4-yl)amino]pyrimidin-4-yl}amino)bicyclo[2.2.1]hept-5-ene-2-carboxylate] | 100 to 1000 nM | > 5000 nM | > 5000 nM
C[C@@H](O)Cn1cc(Nc2ncc(F)c(N[C@@H]3[C@H]4CC[C@H](C4)[C@@H]3C(N)=O)n2)cn1.C[C@@H](O)Cn1cc(Nc2ncc(F)c(N[C@H]3[C@@H]4CC[C@@H](C4)[C@H]3C(N)=O)n2)cn1 (mixture of isomers) [Example 16, (1S,2R,3S,4R)-3-{[5-fluoro-2-({1-[(2R)-2-hydroxypropyl]-1H-pyrazol-4-yl}amino)pyrimidin-4-yl]amino}bicyclo[2.2.1]heptane-2-carboxamide and (1R,2S,3R,4S)-3-{[5-fluoro-2-({1-[(2R)-2-hydroxypropyl]-1H-pyrazol-4-yl}amino)pyrimidin-4-yl]amino}bicyclo[2.2.1]heptane-2-carboxamide] | 100 to 1000 nM | 1000 to 5000 nM | 100 to 1000 nM

Continued, values first:

Ki (Aurora B) | Ki (KDR) | Ki (Aurora A) | Compound
< 100 nM | < 100 nM | < 100 nM | 5-chloro-N^2-(1H-indazol-5-yl)-N^2-{1-[2-(pyrrolidin-1-yl)ethyl]-1H-pyrazol-4-yl}pyrimidine-2,4-diamine [Example 177]
100 to 1000 nM | 1000 to 5000 nM | 1000 to 5000 nM | Cn1cc(Nc2ncc(F)c(N[C@@H]3C[C@H]4CC[C@@H]3C4)n2)cn1.Cn1cc(Nc2ncc(F)c(N[C@H]3C[C@@H]4CC[C@H]3C4)n2)cn1 (mixture of isomers) [Example 3, N^4-[(1S,2S,4R)-bicyclo[2.2.1]hept-2-yl]-5-fluoro-N^2-(1-methyl-1H-pyrazol-4-yl)pyrimidine-2,4-diamine and N^4-[(1R,2R,4S)-bicyclo[2.2.1]hept-2-yl]-5-fluoro-N^2-(1-methyl-1H-pyrazol-4-yl)pyrimidine-2,4-diamine]
< 100 nM | 1000 to 5000 nM | 100 to 1000 nM | CC(O)Cn1cc(Nc2ncc(F)c(NC3C4C=CC(C4)C3C(N)=O)n2)cn1 (mixture of isomers) [Example 15, (1R,2R,3S,4S)-3-{[5-fluoro-2-({1-[(2R)-2-hydroxypropyl]-1H-pyrazol-4-yl}amino)pyrimidin-4-yl]amino}bicyclo[2.2.1]hept-5-ene-2-carboxamide and (1S,2S,3R,4R)-3-{[5-fluoro-2-({1-[(2R)-2-hydroxypropyl]-1H-pyrazol-4-yl}amino)pyrimidin-4-yl]amino}bicyclo[2.2.1]hept-5-ene-2-carboxamide]
